Test results reported in patent publication US20200016136A1 (VIIV HEALTHCARE UK (NO. 5) LIMITED, priority 2017, published 2020).

System: NL-RLuc virus (recombinant NL4-3 HIV with Renilla Luciferase gene)
Test: Inhibition of HIV replication (NL-RLuc virus in MT-2 cells, luciferase readout)
Format: cell-based, Human immunodeficiency virus (HIV)
Settings: MT2, 120 h
How it was run: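 MT-2 cells infected with NL4-3-derived virus carrying Renilla luciferase in place of part of nef, grown 5 days with serial compound dilutions in RPMI 1640/10% FBS. Virus growth read as luciferase expression. EC50 from median effect equation, at least 2 experiments.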

Row | Compound | EC50 [nM]
1 | CCC(C)(C)O[C@H](C(=O)O)c1c(C)nc(C)c(-c2ccc3c(c2)CCN(Cc2ccccc2C)C3)c1N1CCC(C)(C)CC1 [Example 90, (S)-2-(4-(4,4-Dimethylpiperidin-1-yl)-2,6-dimethyl-5-(2-(2-methylbenzyl)-1,2,3,4-tetrahydroisoquinolin-6-yl)pyridin-3-yl)-2-(tert-pentyloxy)acetic Acid] | 4
2 | Cc1cccc(Cl)c1CN1CCc2cc(-c3c(C(=O)N4CCC(C)(C)CC4)nc(C)c([C@H](OC(C)(C)C)C(=O)O)c3N3CCC(C)(C)CC3)ccc2C1 [Example 118, (S)-2-(tert-Butoxy)-2-(5-(2-(2-chloro-6-methylbenzyl)-1,2,3,4-tetrahydroisoquinolin-6-yl)-4-(4,4-dimethylpiperidin-1-yl)-6-(4,4-dimethylpiperidine-1-carbonyl)-2-methylpyridin-3-yl)acetic Acid] | 1
